Results: patent US20120283245A1, “AZABICYCLO[3.1.0]HEX-2-YL COMPOUNDS, A PROCESS FOR THEIR PREPARATION AND PHARMACEUTICAL COMPOSITIONS CONTAINING THEM” (LES LABORATOIRES SERVIER, priority 2009, published 2012)
Counter-ions that a name gives are not always drawn.

How the values were obtained:
[1] = biological target: T1, type H3 mouse histamine receptors (Mus musculus, UniProt P58406); experiment: Affinity for mouse H3 receptors (iodoproxyfan displacement, transfected CHO cells); type: binding; conditions: mouse H3 receptors transfected into CHO cells, iodoproxyfan radioligand, 24 h at room temperature
T1 construct: expressed in transfected cells; host or cells: CHO cells
T1 sequence (P58406 whole entry): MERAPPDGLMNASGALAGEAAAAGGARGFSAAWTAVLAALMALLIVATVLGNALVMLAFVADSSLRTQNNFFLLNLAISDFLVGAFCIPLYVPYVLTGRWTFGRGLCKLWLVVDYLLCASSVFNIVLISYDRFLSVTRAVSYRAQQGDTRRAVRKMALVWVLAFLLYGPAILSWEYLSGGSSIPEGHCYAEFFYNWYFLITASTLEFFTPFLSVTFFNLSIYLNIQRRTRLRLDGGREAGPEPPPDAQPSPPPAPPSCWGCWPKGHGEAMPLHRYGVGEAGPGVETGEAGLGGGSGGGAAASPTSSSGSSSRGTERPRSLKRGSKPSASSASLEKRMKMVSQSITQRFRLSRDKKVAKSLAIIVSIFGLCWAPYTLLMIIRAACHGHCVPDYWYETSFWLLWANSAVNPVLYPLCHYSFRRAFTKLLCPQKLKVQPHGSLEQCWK
Description: The purpose is to measure the affinity of compounds of the present invention for type H3 mouse histamine receptors transfected into CHO cells. The compounds are incubated at different concentrations in the presence of transfected CHO cells, iodoproxyfan as a radiolabelled ligand which is specific for H3 receptors, and scintillant beads for 24 h at room temperature. At the end of the incubation, the displacement of the specific binding of the ligand by the compounds under test is measured, and the affinity constants of those compounds for mouse H3 receptors are determined

[2] = biological target: T2, type H3 central histamine receptors (Mus musculus, UniProt P58406); experiment: Cerebral levels of Nτ-methylhistamine in the NMRI mouse (ex vivo); conditions: 3 mg/kg PO, one hour after treatment, versus carrier controls
T2 construct: from tissue; host or cells: brain of living NMRI mice (oral dosing)
T2 sequence (P58406 whole entry): as above
Description: The purpose of this study, which was carried out in accordance with the method of Taylor et al. (Biochem. Pharm., 1992, 44, 1261-1267), is to evaluate the ex vivo activity of the compounds of the present invention as antagonists of type H3 central histamine receptors. […] An increase in the cerebral concentrations of N^τ-methylhistamine indicates an increase in to the turn-over of histamine by blockage of the type H3 central histamine receptors. NMRI mice (18-20 g) are treated with compounds of the present invention or with their carrier (20 ml/kg) by the oral route. One hour after the pharmacological treatment, the animals are sacrificed; the brains are removed, frozen in liquid nitrogen, weighed and homogenised in 0.1N HClO4 at 4° C. The homogenised products are centrifuged (15000 g, 17 mins., 4° C.). The supernatants are recovered and divided into aliquots. The aliquots are frozen in liquid nitrogen and stored at −80° C. until they are analysed. Determination of the cerebral levels of N^τ-methylhistamine is carried out by capillary electrophoresis. The tissue levels of N^τ-methylhistamine are expressed in μg/g of fresh brain. The comparison of the cerebral levels of N^τ-methylhistamine between animals treated with the carrier (controls) and animals treated with compounds of the present invention is carried out by single-factor variance analysis followed, if necessary, by a complementary analysis (Dunnett's test).

Ki [1]	increase of endogenous cerebral concentrations of Nτ-methylhistamine [2]	SMILES
2400 nM		NC(=O)c1ccc(OCCCN2CC[C@H]3C[C@H]32)cc1 (racemic) [Example 1, 4-[3-(cis-2-Azabicyclo[3.1.0]hex-2-yl)propoxy]-benzamide hydrochloride]
750 nM		CC(=O)Nc1ccc(OCCCN2CC[C@H]3C[C@H]32)cc1 (racemic) [Example 3, N-(4-{3-(cis-2-azabicyclo[3.1.0]hex-2-yl)propoxy}phenyl)acetamide hydrochloride]
180 nM		CN(C)C(=O)c1ccc(OCCCN2CC[C@H]3C[C@H]32)cc1 (racemic) [Example 5, 4-{3-(cis-2-Azabicyclo[3.1.0]hex-2-yl)propoxy}-N,N-dimethylbenzamide hydrochloride]
390 nM		COCC(=O)Nc1ccc(OCCCN2CC[C@H]3C[C@H]32)cc1 (racemic) [Example 9, N-(4-{3-(cis-2-azabicyclo[3.1.0]hex-2-yl)propoxy}phenyl)-2-methoxy-acetamide hydrochloride]
	+272%	CC(=O)Nc1ccc(OCCCN2CC[C@H]3C[C@H]32)cc1 (relative stereo) [Example 3, N-(4-{3-(cis-2-azabicyclo[3.1.0]hex-2-yl)propoxy}phenyl)acetamide hydrochloride]
	+221%	CC(=O)Nc1ccc(OCCN2CC[C@H]3C[C@H]32)cc1.Cl (relative stereo) [Example 4, N-(4-{2-(cis-2-azabicyclo[3.1.0]hex-2-yl)ethoxy}phenyl)acetamide hydrochloride]
	+225%	CCN(CC)C(=O)c1ccc(OCCCN2CC[C@H]3C[C@H]32)cc1.Cl (relative stereo) [Example 6, 4-{3-(cis-2-Azabicyclo[3.1.0]hex-2-yl)propoxy}-N,N-diethylbenzamide hydrochloride]
	+377%	CNC(=O)c1ccc(OCCCN2CC[C@H]3C[C@H]32)cc1.Cl (relative stereo) [Example 7, 4-{3-(cis-2-Azabicyclo[3.1.0]hex-2-yl)propoxy}-N-methylbenzamide hydrochloride]
	+276%	CC(=O)N(C)c1ccc(OCCCN2CC[C@H]3C[C@H]32)cc1.Cl (relative stereo) [Example 8, N-(4-{3-(cis-2-azabicyclo[3.1.0]hex-2-yl)propoxy}phenyl)-N-methyl-acetamide hydrochloride]
	+250%	COCC(=O)Nc1ccc(OCCCN2CC[C@H]3C[C@H]32)cc1 (relative stereo) [Example 9, N-(4-{3-(cis-2-azabicyclo[3.1.0]hex-2-yl)propoxy}phenyl)-2-methoxy-acetamide hydrochloride]
